According to the NIST ThermoML archive (doi:10.1021/acs.jced.5b00838):
Numbers after ± are expanded uncertainties.

Columns and labels:
[1] = 101.33 kPa, Liquid, Vibrating tube method
[2] = excess molar enthalpy (molar enthalpy of mixing); xn = mol fraction of the nth substance listed; conditions: 100 kPa, Liquid, isothermal titration calorimetry

CCCCCCOCC [1-ethoxyhexane]
[1]
Conditions | mass density [kg/m3]
288.15 K | 775.8 ± 1.6
293.15 K | 771.47 ± 1.6
298.15 K | 767.15 ± 1.6
303.15 K | 762.8 ± 1.5
308.15 K | 758.45 ± 1.5
313.15 K | 754.06 ± 1.5
318.15 K | 749.66 ± 1.5
323.15 K | 745.27 ± 1.5

CCCCCCCOC [1-methoxyheptane]
[1]
Conditions | mass density [kg/m3]
288.15 K | 783.89 ± 1.6
293.15 K | 779.71 ± 1.6
298.15 K | 775.52 ± 1.6
303.15 K | 771.31 ± 1.6
308.15 K | 767.09 ± 1.5
313.15 K | 762.85 ± 1.5
318.15 K | 758.57 ± 1.5
323.15 K | 754.3 ± 1.5

CCCCCOCCC [1-propoxypentane]
[1]
Conditions | mass density [kg/m3]
288.15 K | 773.45 ± 1.6
293.15 K | 769.12 ± 1.5
298.15 K | 764.78 ± 1.5
303.15 K | 760.4 ± 1.5
308.15 K | 756.01 ± 1.5
313.15 K | 751.6 ± 1.5
318.15 K | 747.19 ± 1.5
323.15 K | 742.73 ± 1.5

CCCOCCC(C)C [3-methyl-1-propoxybutane]
[1]
Conditions | mass density [kg/m3]
288.15 K | 768.79 ± 1.6
293.15 K | 764.43 ± 1.5
298.15 K | 760.04 ± 1.5
303.15 K | 755.62 ± 1.5
308.15 K | 751.22 ± 1.5
313.15 K | 746.78 ± 1.5
318.15 K | 742.31 ± 1.5
323.15 K | 737.84 ± 1.5

CCCOCCC(C)C [3-methyl-1-propoxybutane] + CC#N
[2]
Conditions | excess molar enthalpy [kcal/mol]
298.15 K, x2 = 0.0312 | 0.0349 ± 0.000598
298.15 K, x2 = 0.0606 | 0.0693 ± 0.00098
298.15 K, x2 = 0.0882 | 0.0976 ± 0.00131
298.15 K, x2 = 0.1142 | 0.122 ± 0.0016
298.15 K, x2 = 0.1388 | 0.144 ± 0.00186
298.15 K, x2 = 0.1841 | 0.178 ± 0.00229
298.15 K, x2 = 0.2249 | 0.204 ± 0.00263
298.15 K, x2 = 0.2618 | 0.224 ± 0.00287
298.15 K, x2 = 0.3259 | 0.253 ± 0.00311
298.15 K, x2 = 0.3798 | 0.271 ± 0.00335
298.15 K, x2 = 0.4258 | 0.281 ± 0.00359
298.15 K, x2 = 0.4654 | 0.286 ± 0.00359
298.15 K, x2 = 0.5079 | 0.289 ± 0.00359
298.15 K, x2 = 0.5442 | 0.289 ± 0.00359
298.15 K, x2 = 0.5756 | 0.287 ± 0.00359
298.15 K, x2 = 0.6028 | 0.284 ± 0.00359
298.15 K, x2 = 0.6559 | 0.274 ± 0.00335
298.15 K, x2 = 0.6774 | 0.269 ± 0.00335
298.15 K, x2 = 0.6994 | 0.262 ± 0.00335
298.15 K, x2 = 0.7186 | 0.255 ± 0.00311
298.15 K, x2 = 0.7355 | 0.248 ± 0.00311
298.15 K, x2 = 0.7504 | 0.241 ± 0.00311
298.15 K, x2 = 0.7638 | 0.234 ± 0.00287
308.15 K, x2 = 0.0302 | 0.0413 ± 0.000669
308.15 K, x2 = 0.0586 | 0.0789 ± 0.0011
308.15 K, x2 = 0.0854 | 0.11 ± 0.00148
308.15 K, x2 = 0.1107 | 0.136 ± 0.00179
308.15 K, x2 = 0.1347 | 0.158 ± 0.00206
308.15 K, x2 = 0.1789 | 0.195 ± 0.00239
308.15 K, x2 = 0.2188 | 0.223 ± 0.00287
308.15 K, x2 = 0.2551 | 0.245 ± 0.00311
308.15 K, x2 = 0.2881 | 0.262 ± 0.00335
308.15 K, x2 = 0.3183 | 0.275 ± 0.00359
308.15 K, x2 = 0.3716 | 0.293 ± 0.00359
308.15 K, x2 = 0.4172 | 0.304 ± 0.00382
308.15 K, x2 = 0.4567 | 0.31 ± 0.00382
308.15 K, x2 = 0.4992 | 0.313 ± 0.00382
308.15 K, x2 = 0.5356 | 0.313 ± 0.00382
308.15 K, x2 = 0.567 | 0.311 ± 0.00382
308.15 K, x2 = 0.5944 | 0.307 ± 0.00382
308.15 K, x2 = 0.6231 | 0.302 ± 0.00382
308.15 K, x2 = 0.648 | 0.295 ± 0.00382
308.15 K, x2 = 0.6698 | 0.289 ± 0.00359
308.15 K, x2 = 0.692 | 0.281 ± 0.00359
308.15 K, x2 = 0.7115 | 0.274 ± 0.00359
308.15 K, x2 = 0.7146 | 0.269 ± 0.00335
308.15 K, x2 = 0.7286 | 0.266 ± 0.00335
308.15 K, x2 = 0.7356 | 0.26 ± 0.00335
308.15 K, x2 = 0.7438 | 0.259 ± 0.00335
308.15 K, x2 = 0.7574 | 0.252 ± 0.00311
308.15 K, x2 = 0.7579 | 0.249 ± 0.00311
308.15 K, x2 = 0.7816 | 0.236 ± 0.00311
308.15 K, x2 = 0.8068 | 0.219 ± 0.00287
308.15 K, x2 = 0.8337 | 0.2 ± 0.00263
308.15 K, x2 = 0.8507 | 0.186 ± 0.00239
308.15 K, x2 = 0.8684 | 0.17 ± 0.0022
308.15 K, x2 = 0.8869 | 0.151 ± 0.00645
308.15 K, x2 = 0.9061 | 0.13 ± 0.00669
308.15 K, x2 = 0.9263 | 0.107 ± 0.00717
308.15 K, x2 = 0.9401 | 0.0886 ± 0.00765
308.15 K, x2 = 0.9544 | 0.0689 ± 0.00813
308.15 K, x2 = 0.9691 | 0.0474 ± 0.0086
308.15 K, x2 = 0.9843 | 0.0234 ± 0.00908

CC#N [acetonitrile]
[1]
Conditions | mass density [kg/m3]
298.15 K | 776.51 ± 1.6
303.15 K | 771.06 ± 1.6
308.15 K | 765.59 ± 1.5
313.15 K | 760.1 ± 1.5
318.15 K | 754.56 ± 1.5
323.15 K | 748.99 ± 1.5

CCCCOCC(C)C [butyl isobutyl ether]
[1]
Conditions | mass density [kg/m3]
288.15 K | 764.07 ± 1.6
293.15 K | 759.72 ± 1.5
298.15 K | 755.31 ± 1.5
303.15 K | 750.87 ± 1.5
308.15 K | 746.45 ± 1.5
313.15 K | 741.98 ± 1.5
318.15 K | 737.58 ± 1.5
323.15 K | 732.99 ± 1.5

CCCCOCC(C)C [butyl isobutyl ether] + CC#N
[2], 298.15 K
Conditions | excess molar enthalpy [kcal/mol]
x2 = 0.0314 | 0.0454 ± 0.000717
x2 = 0.061 | 0.0839 ± 0.00117
x2 = 0.0887 | 0.116 ± 0.00153
x2 = 0.1149 | 0.143 ± 0.00186
x2 = 0.1396 | 0.167 ± 0.00215
x2 = 0.1851 | 0.204 ± 0.00263
x2 = 0.2261 | 0.233 ± 0.00287
x2 = 0.2631 | 0.255 ± 0.00335
x2 = 0.2967 | 0.273 ± 0.00335
x2 = 0.3275 | 0.286 ± 0.00359
x2 = 0.3815 | 0.302 ± 0.00382
x2 = 0.4274 | 0.31 ± 0.00382
x2 = 0.4671 | 0.315 ± 0.00406
x2 = 0.5097 | 0.317 ± 0.00406
x2 = 0.5459 | 0.316 ± 0.00406
x2 = 0.5772 | 0.311 ± 0.00382
x2 = 0.6045 | 0.308 ± 0.00382
x2 = 0.6329 | 0.301 ± 0.00382
x2 = 0.6575 | 0.295 ± 0.00382
x2 = 0.6789 | 0.289 ± 0.00359
x2 = 0.7009 | 0.282 ± 0.00359
x2 = 0.7183 | 0.275 ± 0.00359
x2 = 0.72 | 0.275 ± 0.00359
x2 = 0.7368 | 0.268 ± 0.00335
x2 = 0.7392 | 0.267 ± 0.00335
x2 = 0.7517 | 0.261 ± 0.00335
x2 = 0.7613 | 0.256 ± 0.00335
x2 = 0.765 | 0.254 ± 0.00311
x2 = 0.7847 | 0.242 ± 0.00311
x2 = 0.8097 | 0.226 ± 0.00287
x2 = 0.8362 | 0.207 ± 0.00263
x2 = 0.853 | 0.193 ± 0.00239
x2 = 0.8705 | 0.177 ± 0.00227
x2 = 0.8887 | 0.158 ± 0.00206
x2 = 0.9077 | 0.137 ± 0.00179
x2 = 0.9275 | 0.112 ± 0.00151
x2 = 0.9411 | 0.0935 ± 0.00129
x2 = 0.9552 | 0.073 ± 0.00105
x2 = 0.9697 | 0.0503 ± 0.000789
x2 = 0.9846 | 0.0253 ± 0.00055
